According to ChEMBL document CHEMBL1151220, “Further bioactive piperidine alkaloids from the flowers and green fruits of Cassia spectabilis” (2004):
The source made the active and inactive calls. The rule behind the calls is not given here.

Assays:
Format in all cases: functional
[1] = system: Saccharomyces cerevisiae; experiment: DNA damaging activity against DNA RS 322YK ([…]) Saccharomyces cerevisiae
[2] = system: Saccharomyces cerevisiae; experiment: DNA damaging activity against RS 188N (RAD+) Saccharomyces cerevisiae
[3] = system: Saccharomyces cerevisiae; experiment: DNA damaging activity against RS 321N Saccharomyces cerevisiae

| SMILES | Activity [1] | Activity [2] | Activity [3] | IC12 [3] [µg/mL] |
| --- | --- | --- | --- | --- |
| CC(=O)CCCCCCCCCCCC[C@H]1CC[C@@H](O)[C@@H](CO)N1 | inactive | inactive | inactive | – |
| CC(=O)CCCCCCCCCCCC[C@@H]1CC[C@@H](O)[C@@H](C)N1 | inactive | inactive | inactive | – |
| CC(=O)CCCCCCCCCCCC[C@H]1CC[C@@H](O)[C@@H](C)N1 | – | – | – | 17 |
| CC(=O)CCCCCCCCCCCC[C@H]1CC[C@@H](OC(C)=O)[C@@H](C)N1 | – | – | – | 32 |
| COC1=C(N)C(=O)c2nc(-c3nc(C(=O)O)c(C)c(-c4ccc(OC)c(OC)c4O)c3N)ccc2C1=O [STREPTONIGRIN] | – | – | – | 4 |
